Test: Agilent ZORBAX 300 SB-C18, 150 × 1 mm, 3.5 µm; A: water + 0.01% heptafluorobutyric acid; B: acetonitrile + 0.01% heptafluorobutyric acid; gradient (min/%B) 0/0 100/90
Settings: stereoisomer not certain

Compound | LC retention time
O=c1[nH]c2ccccc2n1CCOc1ccccc1 | 12.2 min
c1ccc(-c2nc(-c3cccnc3)[nH]c2-c2ccccc2)cc1 | 11 min
CCCCCCCCCCCCN(C)C | 13.7 min
CCNc1ccccc1C | 8.47 min
CC(N)Cc1ccc2oc3ccccc3c2c1 (stereo not drawn) | 10.1 min
O=C(O)c1c2c(nc3ccccc13)CCCC2 | 5.96 min
Cc1ccnc(=O)[nH]1 | 2.97 min
Cc1ccc(-n2nc(-c3cn(C)nc3C)cc2-c2cn(C)nc2C)cc1 | 12 min
C=CN1CCCC1=O | 7.85 min
COc1ccc(OCc2nc3ccccc3nc2C)cc1 | 14.1 min
Nn1cnn(Cc2ccccc2)c1=S | 10.3 min
CC(C)=CCN1CC2(C)c3cc(O)ccc3CC1C2C (stereo not drawn) | 10.3 min
Nc1nc(N)nc(N)n1 | 4.25 min
c1cc(N2CCCC2)ccn1 | 7.65 min
CN(C)c1ccc(CCN)cc1 | 7.22 min
Cc1cc(=O)[nH]c(C(C)C)n1 | 6.9 min
Cc1ccccc1N1C(=O)c2ccc(C(=O)O)cc2C1=O | 12 min
Nc1ccc(N)cc1 | 4.51 min
C#Cc1cncn1C | 6.39 min

Compound | LC retention time
Cn1c(C(C)(C)C)nc(N)nc1=O | 7.21 min
c1ccc2c3c([nH]c2c1)CCCC3 | 15.7 min
Cc1[nH]c2c(c1C)C(=O)CCC2 | 8.94 min
COc1ccc(-n2c(O)c(Cc3ccc(OC)c(OC)c3)c(=O)[nH]c2=O)cc1 | 10.7 min
O=C1c2ccccc2-c2nc3ccccc3cc21 | 14.2 min
Cc1ccc2c(c1)C1CN(C)CCC1N2C(=O)CN1CCCCC1 (stereo not drawn) | 7.91 min
c1ccc2nc3c(nc2c1)[nH]c1ccccc13 | 12 min
O=c1[nH]c(-c2ccccc2)nc2ccccc12 | 11 min
Cc1cnc(C)cn1 | 7.49 min
CN(C)c1ccncc1 | 7.29 min
Oc1ccc(-c2cccc(-c3ccc(O)cc3)n2)cc1 | 10.1 min
S=C(Nc1cccnc1)N(CCc1ccccc1)Cc1ccccc1 | 12.8 min
O=Cc1c(-c2ccccc2)[nH]c2ccccc12 | 12.7 min
CC(C)c1ncc[nH]1 | 6.64 min
c1ccc(Nc2nc(-c3ccccc3)nc3ccccc23)cc1 | 11.9 min
O=C(c1ccccc1)c1nc2ccccc2[nH]c1=O | 11.2 min
Nc1ccc2cc3ccc(N)cc3nc2c1 | 9.09 min
Nc1ncccn1 | 5.83 min
c1cncc(-c2nn[nH]n2)c1 | 5.35 min

Compound | LC retention time
CC(C)(C)c1ccc(C2Nc3ccccc3C(=O)N2c2ccccc2)cc1 (stereo not drawn) | 16.7 min
CCc1cccnc1 | 6.88 min
Cc1cccc(CN2CCN(CN3C(=O)c4ccccc4C3=O)CC2)c1 | 10.3 min
CC(=O)NC1CCN(C)C2CCCCC12 (stereo not drawn) | 7.11 min
C=CCNC1CCCCC1 | 7.93 min
CC(C)N(C)C(C)(C)C | 7.1 min
O=C(O)c1c[nH]c(=O)[nH]1 | 1.64 min
NC(=S)CCc1ccccn1 | 6.55 min
Cc1ccc2c(c1)C(=O)c1cnc(C)cc1-2 | 10.3 min
O=c1c2n[nH]nc2cnn1-c1ccccc1 | 8.76 min
CCCCCCCCCCCCCCCCCCNC | 19 min
c1ccc(CCn2cccc2)cc1 | 15.5 min
c1cncc(CNCc2cccnc2)c1 | 7.11 min
NCCN | 5.99 min
c1ccc2c(c1)CCN2 | 7.26 min
O=C(CCCCCN1C(=O)c2ccccc2C1=O)NCc1ccccn1 | 9.55 min
CCCCCCCCCN | 11 min
Cc1ccc2[nH]c3nc4ccccc4nc3c2c1 | 13.2 min

Next, values leading:

LC retention time | Compound
10.4 min | CCc1ccc(N2CC(C(=O)Nc3ccc(N(C)C)cc3)CC2=O)cc1 (stereo not drawn)
10.2 min | Cc1ccc(N2CC(C(=O)O)CC2=O)cc1C (stereo not drawn)
14.3 min | COC(=O)c1[nH]c2ccccc2c1-n1cccc1
8.72 min | O=C(O)CCCC(=O)Nc1ccccc1
4.39 min | CC(C)(N)CO
14.1 min | Cc1cc(C)c2c(=O)n(CC(=O)NCCCc3ccccc3)c(=O)n(C)c2n1
11.2 min | C(=Cc1ccco1)C=NN1CCN(Cc2cccc3ccccc23)CC1
9.78 min | COc1ccc(N2CCCC2=O)cc1
13 min | Cc1cc(C=O)c(C)n1-c1ccccc1
7.11 min | CCCc1cc(C(N)=O)ccn1
8.99 min | O=C(CN1CCc2ccccc2C1)NC1CCCC1
11.6 min | O=C(CCCCCN1C(=O)c2ccccc2C1=O)Nc1cccc(C(=O)O)c1
17.8 min | CCOc1ccc(C=CC(=O)c2ccc(C)cc2)cc1
6.58 min | CC(N)CN(C)C (stereo not drawn)
9.05 min | NC(=O)c1cc2ccccc2o1
10 min | Cc1n[nH]c(=O)nc1N=NCc1c[nH]c2ccccc12
15.3 min | O=C(NCCCc1ccccc1)c1ccccc1O
11.5 min | CCN(CC)c1ccc(C=Nc2ccccc2)c(O)c1
8.26 min | CCCCNCC(=O)Nc1ccc(NC(=O)CNCCCC)cc1
7.34 min | CCC1NC(=O)NC(C)=C1C(C)=O (stereo not drawn)
10.4 min | CC(=O)C=C(N)c1ccccc1
13.8 min | CCOC(=O)C=CC(=O)NCCC1=CCCCC1
8.03 min | CC1(C)CC(N2CN(C3CCCCC3)CC2=O)CC(C)(C)N1
7.75 min | Cc1ccc2[nH]c(=O)c(C=NC(CO)(CO)CO)c(O)c2c1

LC retention time | Compound
12.2 min | O=C(C=Cc1ccccc1O)c1ccc(O)cc1O
16.7 min | Cc1cccc(NC(=O)C(Cc2c[nH]c3ccccc23)NC(=O)C(c2ccccc2)c2ccccc2)c1C (stereo not drawn)
12.8 min | CCCCc1c(O)n(-c2ccc(O)cc2)n(-c2ccccc2)c1=O
8.46 min | Cc1ccccc1C(=O)NC1CC(C)(C)NC(C)(C)C1
9.57 min | CCCCOC(=O)CCc1n[nH]c(=O)[nH]c1=O
9.94 min | C=CCOc1ccccc1OCC(O)CNC(C)C (stereo not drawn)
6.01 min | CCCc1cc(C(=O)O)ccn1
8.86 min | CNC(=S)N1CCCCC1
10.8 min | CCCCCCC1(C)OCOC1=CC[N+](C)(C)C (stereo not drawn)
5.78 min | CNCC1COCCO1 (stereo not drawn)
17.5 min | Cc1ccc(N2CCN(C(=O)C(c3ccccc3)c3ccccc3)CC2)cc1C
6.16 min | Cc1ccc2nc(C)cc(C(=O)O)c2c1
10 min | COc1ccc(C=NCCC2=CCCCC2)cc1OC
14.3 min | Cc1[nH]c2ccccc2c1CCN1C(=O)C2CCCCC2C1=O (stereo not drawn)
7.61 min | CC1(C)CC(NC(=O)c2ccccc2C(=O)NC2CC(C)(C)NC(C)(C)C2)CC(C)(C)N1
9 min | CC(=O)c1ccc2c(c1)n(C)c(=O)n2C
10.3 min | Cc1ccc(C(=O)c2ccc(C)c(N)c2)cc1N
7.46 min | CC(C)(C)NCCNC(C)(C)C
12.2 min | C#CC(C)(C)NC(=O)CCCCCN1C(=O)c2ccccc2C1=O
7.82 min | CNC1C(OC2C(OC3C(O)C(O)C(N=C(N)N)C(O)C3N=C(N)N)OC(C)C2(O)C=O)OC(CO)C(O)C1O (stereo not drawn)
8.76 min | CC(=NNC(=O)C[n+]1ccccc1)c1ccccc1
7.28 min | NC(=O)C1(N2CCCCC2)CCN(C(=O)CN2CCNCC2)CC1
9.8 min | Cc1ccc(NC(=O)C(=O)NCCN2CCN(C(=O)c3ccccc3)CC2)cc1
16.8 min | CCCCCCCN1C(=O)c2ccccc2C1(O)Cc1ccccc1 (stereo not drawn)

LC retention time | Compound
5.4 min | Cn1c(=O)[nH]cc(CC(=O)O)c1=O
6.78 min | CC1=CC(=O)C(C)(C)NC1
10.5 min | CC1(C)SC2C(NC(=O)Cc3ccccc3)C(=O)N2C1C(=O)O (stereo not drawn)
19.9 min | COc1ccc(C(=O)C=Cc2ccc(OC)c(COc3cccc(C)c3C)c2)cc1
12.2 min | O=C(NN=Cc1cccc(O)c1)c1cc2ccccc2cc1O
4 min | COC(=O)C(N)CO (stereo not drawn)
7.58 min | CN1C(=O)CC(CN)c2ccccc21 (stereo not drawn)
17.6 min | Cc1ccc(N2C(=O)CC(N(CCc3ccccc3)C(=S)Nc3cccc(C)c3)C2=O)cc1 (stereo not drawn)
8.04 min | CC(C)CNCC(C)C
7.6 min | CCNc1cc(C)ccc1O
16.9 min | CCOC(=O)c1ccc(NC(=O)C(c2ccccc2)c2ccccc2)cc1
20.7 min | COC(=O)c1ccccc1NCc1ccccc1CNc1ccccc1C(=O)OC
7.31 min | Nc1ccc(N2CCCC2=O)cc1
8.68 min | CC(N)=C1C(=O)C(=O)N(C)C1c1ccccc1 (stereo not drawn)
13 min | C#CC(C)(CC)NC(=O)CCc1ccccc1 (stereo not drawn)
8.88 min | Cn1c(=O)n(C)c(=O)n(CC(=O)N2CCCCC2)c1=O
15.6 min | CCCCc1ccc(NC(=O)Cc2ccc(OC)c(OC)c2)cc1
10.5 min | Cc1cc(C)nc(N=C(N)Nc2cccc3ccccc23)n1
8.98 min | CN(C)C(=O)c1ccccc1
14.8 min | O=C(CNc1ccc2ccccc2c1)NN=Cc1ccccc1
10.5 min | CCCCN1CCCCC1C(=O)Nc1c(C)cccc1C (stereo not drawn)
15.2 min | CC(=O)C1(O)CCC2C3CC(C)C4=CC(=O)CCC4(C)C3CCC21C (stereo not drawn)
10.5 min | CCCC(=O)Nc1cccc(C(=O)Nc2ccc(C(=O)O)cc2)c1
1.71 min | NC(=O)NCCCC(N)C(=O)O (stereo not drawn)
